Data as given in patent US20030022872A1, “Vitamin d derivatives having substituents at the 2 alpha-position” (priority 2000, published 2003).

Target: T1, bovine thymus vitamin D receptor (VDR) (Bos taurus, UniProt Q28037)
T1 sequence (Q28037 1-426): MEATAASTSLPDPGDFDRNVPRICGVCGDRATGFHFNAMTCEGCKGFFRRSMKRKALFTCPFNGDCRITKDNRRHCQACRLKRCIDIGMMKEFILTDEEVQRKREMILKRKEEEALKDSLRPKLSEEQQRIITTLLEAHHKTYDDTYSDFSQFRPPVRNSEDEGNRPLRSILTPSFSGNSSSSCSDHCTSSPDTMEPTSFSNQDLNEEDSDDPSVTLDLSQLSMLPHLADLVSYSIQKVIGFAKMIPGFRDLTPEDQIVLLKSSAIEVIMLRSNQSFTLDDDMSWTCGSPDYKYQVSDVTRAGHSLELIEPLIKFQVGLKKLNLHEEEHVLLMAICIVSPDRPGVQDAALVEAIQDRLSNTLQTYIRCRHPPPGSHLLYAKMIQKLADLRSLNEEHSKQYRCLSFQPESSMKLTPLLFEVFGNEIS
Settings: relative value with 1α,25-dihydroxyvitamin D3 taken as 100; ratio of concentrations inhibiting 50% of [3H]-1α,25-dihydroxyvitamin D3 binding (0.1 nM tracer, overnight at 4° C.)
Protocol: Each of the resultant supernatants (500 μl) was mixed with ACS-II (9.5 ml) ([sequence], England) for radioactivity measurement.
X: relative VDR binding property of the vitamin D derivative of the present invention

Question: Which “relative VDR binding property X=(y/x)×100” value does the source give for “(5Z,7E)-(1S,2S,3R,20R)-2-(3-hydroxypropoxy)-9,10-seco-5,7,10(19)-cholestatriene-1,3,25-triol [Compound 16]” here?
Answer: The value was 180.
